Data from ChEMBL document CHEMBL4819053, “Alkyne-Bridged α-Conotoxin Vc1.1 Potently Reverses Mechanical Allodynia in Neuropathic Pain Models” (J Med Chem, 2021).
Calls of active or inactive are those of the source.

Key:
[1] = target: T1, Neuronal acetylcholine receptor; alpha3/beta2 (Homo sapiens) (UniProt P17787+P32297); experiment: Antagonist activity at human alpha3beta2 nAChR expressed in Xenopus laevis oocytes assessed as inhibition of Ach-induced response at 30 uM incubated for 5 mins by two electrode voltage-clamp assay relative to control; type: cell-based; conditions: Oocyte
[2] = target: T2, GABA-B receptor (Homo sapiens) (UniProt Q9UBS5+O75899); experiment: Agonist activity at human GABAB expressed in HEK293T cells co-transfected with human CaV2.2-alpha2delta1 channel assessed as inhibition of CaV2.2-mediated Ba2+ peak-current amplitude at 100 nM at -80 to 10 mV holding potential after 72 hrs by whole cell patch clamp assay relative to control; type: cell-based; conditions: filed as agonist
[3] = target: T2, GABA-B receptor (Homo sapiens); experiment: Agonist activity at human GABAB expressed in HEK293T cells co-transfected with human CaV2.2-beta3 channel assessed as inhibition of CaV2.2-mediated Ba2+ peak-current amplitude at 100 nM at -80 to 10 mV holding potential after 72 hrs by whole cell patch clamp assay relative to control; type: cell-based; conditions: filed as agonist
[4] = target: T2, GABA-B receptor (Homo sapiens); experiment: Agonist activity at human GABAB expressed in HEK293T cells co-transfected with human CaV2.2-alpha1B channel assessed as inhibition of CaV2.2-mediated Ba2+ peak-current amplitude at 100 nM at -80 to 10 mV holding potential after 72 hrs by whole cell patch clamp assay relative to control; type: cell-based; conditions: filed as agonist
Rattus norvegicus [5] = experiment: Antiallodynic activity in Sprague-Dawley rat model of neuropathic mechanical allodynia assessed as increase in paw withdrawal threshold at 0.1 mg/kg, IM measured at 24 hrs post last dose by von Frey test; type: functional
[6] = target: T3, Neuronal acetylcholine receptor; alpha9/alpha10 (Homo sapiens) (UniProt Q9UGM1+Q9GZZ6); experiment: Antagonist activity at human alpha9/alpha10 nAChR expressed in Xenopus laevis oocytes assessed as inhibition of Ach-induced response at 30 uM incubated for 5 mins by two electrode voltage-clamp assay; type: cell-based; conditions: Oocyte
[7] = target: Neuronal acetylcholine receptor subunit alpha-7 (Homo sapiens) (UniProt P36544); experiment: Antagonist activity at human alpha7 nAChR expressed in Xenopus laevis oocytes assessed as inhibition of Ach-induced response incubated for 5 mins by two electrode voltage-clamp assay; type: cell-based; conditions: Oocyte, dose 1-30 µM
Chain of Neuronal acetylcholine receptor subunit alpha-7 (Homo sapiens) (P36544 whole entry): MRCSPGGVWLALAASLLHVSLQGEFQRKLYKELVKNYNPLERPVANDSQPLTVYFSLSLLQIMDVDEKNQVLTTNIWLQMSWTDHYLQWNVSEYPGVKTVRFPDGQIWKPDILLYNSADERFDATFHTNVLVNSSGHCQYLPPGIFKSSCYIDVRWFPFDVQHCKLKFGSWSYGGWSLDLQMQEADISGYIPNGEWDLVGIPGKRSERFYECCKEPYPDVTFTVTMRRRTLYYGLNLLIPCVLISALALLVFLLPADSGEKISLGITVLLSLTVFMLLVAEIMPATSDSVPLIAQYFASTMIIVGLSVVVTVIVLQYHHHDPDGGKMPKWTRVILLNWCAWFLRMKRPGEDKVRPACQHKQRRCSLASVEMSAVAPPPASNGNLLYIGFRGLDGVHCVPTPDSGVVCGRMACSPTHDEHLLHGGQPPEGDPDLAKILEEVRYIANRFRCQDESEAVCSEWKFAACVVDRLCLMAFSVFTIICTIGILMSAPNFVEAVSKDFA

Rattus norvegicus [8] = experiment: Antiallodynic activity in Sprague-Dawley rat model of neuropathic mechanical allodynia assessed as increase in paw withdrawal threshold at 0.1 mg/kg, IM measured at 1 hr post last dose by von Frey test; type: functional
Rattus norvegicus [9] = experiment: Antiallodynic activity in Sprague-Dawley rat model of neuropathic mechanical allodynia assessed as increase in paw withdrawal threshold at 0.1 mg/kg, IM measured at 6 hr post last dose by von Frey test; type: functional
Rattus norvegicus [10] = experiment: Antiallodynic activity in Sprague-Dawley rat model of neuropathic mechanical allodynia assessed as increase in paw withdrawal threshold at 0.1 mg/kg, IM measured at 4 hr post last dose by von Frey test; type: functional
GABA-B receptor = GABA-B receptor (Homo sapiens, UniProt O75899+Q9UBS5); experiment: Agonist activity at human GABAB expressed in HEK293T cells co-transfected with human CaV2.2 channel assessed as inhibition of CaV2.2-mediated Ba2+ peak-current amplitude at -80 to 10 mV holding potential after 72 hrs by whole cell patch clamp assay; type: cell-based
Chain of GABA-B receptor (Q9UBS5 whole entry): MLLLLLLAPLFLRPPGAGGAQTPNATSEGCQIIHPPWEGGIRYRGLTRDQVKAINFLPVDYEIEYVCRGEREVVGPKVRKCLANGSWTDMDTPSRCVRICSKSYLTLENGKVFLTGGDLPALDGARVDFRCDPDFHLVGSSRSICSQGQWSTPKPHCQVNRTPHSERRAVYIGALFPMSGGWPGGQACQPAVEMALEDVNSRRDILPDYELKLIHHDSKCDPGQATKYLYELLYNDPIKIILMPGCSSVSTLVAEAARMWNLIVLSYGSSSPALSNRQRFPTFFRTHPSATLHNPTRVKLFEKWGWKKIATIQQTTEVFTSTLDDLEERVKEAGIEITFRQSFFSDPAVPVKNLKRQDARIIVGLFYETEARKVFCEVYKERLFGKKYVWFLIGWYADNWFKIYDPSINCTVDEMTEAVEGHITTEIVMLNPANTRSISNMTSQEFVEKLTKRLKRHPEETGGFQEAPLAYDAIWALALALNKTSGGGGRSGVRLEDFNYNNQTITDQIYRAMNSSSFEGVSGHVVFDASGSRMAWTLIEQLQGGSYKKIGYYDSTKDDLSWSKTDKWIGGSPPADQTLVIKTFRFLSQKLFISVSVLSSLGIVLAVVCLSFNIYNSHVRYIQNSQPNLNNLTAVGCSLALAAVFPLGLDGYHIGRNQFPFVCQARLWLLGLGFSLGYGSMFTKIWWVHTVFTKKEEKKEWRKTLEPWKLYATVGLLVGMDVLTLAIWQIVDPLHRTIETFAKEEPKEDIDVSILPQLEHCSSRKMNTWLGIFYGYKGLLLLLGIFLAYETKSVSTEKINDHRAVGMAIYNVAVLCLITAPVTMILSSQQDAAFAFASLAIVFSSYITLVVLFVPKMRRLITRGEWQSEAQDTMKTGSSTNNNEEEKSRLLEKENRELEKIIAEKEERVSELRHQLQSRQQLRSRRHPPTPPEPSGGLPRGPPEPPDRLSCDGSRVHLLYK
Chain of GABA-B receptor (O75899 whole entry): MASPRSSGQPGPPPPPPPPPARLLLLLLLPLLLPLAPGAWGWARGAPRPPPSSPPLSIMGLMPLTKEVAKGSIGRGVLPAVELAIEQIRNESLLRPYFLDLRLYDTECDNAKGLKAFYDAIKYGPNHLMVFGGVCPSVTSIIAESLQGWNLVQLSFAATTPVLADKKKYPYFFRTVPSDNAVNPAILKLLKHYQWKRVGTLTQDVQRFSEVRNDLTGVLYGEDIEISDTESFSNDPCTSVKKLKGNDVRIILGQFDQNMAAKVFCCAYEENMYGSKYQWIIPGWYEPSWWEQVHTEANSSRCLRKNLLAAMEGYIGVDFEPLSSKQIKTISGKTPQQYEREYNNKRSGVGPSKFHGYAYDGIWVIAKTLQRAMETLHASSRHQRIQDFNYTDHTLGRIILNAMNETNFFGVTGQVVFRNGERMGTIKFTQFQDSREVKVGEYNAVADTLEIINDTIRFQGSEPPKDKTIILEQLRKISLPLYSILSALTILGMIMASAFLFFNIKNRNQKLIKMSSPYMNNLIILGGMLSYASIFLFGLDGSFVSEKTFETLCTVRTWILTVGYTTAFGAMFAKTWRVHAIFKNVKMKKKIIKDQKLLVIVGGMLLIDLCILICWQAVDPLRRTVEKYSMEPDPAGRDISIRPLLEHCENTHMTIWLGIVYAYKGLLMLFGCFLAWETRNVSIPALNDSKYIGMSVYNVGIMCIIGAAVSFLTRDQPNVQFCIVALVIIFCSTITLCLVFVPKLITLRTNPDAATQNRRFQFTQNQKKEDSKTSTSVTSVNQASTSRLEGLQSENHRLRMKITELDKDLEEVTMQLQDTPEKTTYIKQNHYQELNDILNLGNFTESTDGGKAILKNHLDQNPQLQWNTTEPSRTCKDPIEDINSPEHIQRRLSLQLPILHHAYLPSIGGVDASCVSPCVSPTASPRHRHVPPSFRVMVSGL

Rattus norvegicus [11] = experiment: Antiallodynic activity in Sprague-Dawley rat model of neuropathic mechanical allodynia assessed as increase in paw withdrawal threshold administered intramuscularly measured at 1 to 24 hrs post last dose by von Frey test; type: functional, organism-based; conditions: dose 0.03-0.1 mg/kg, time 1-24 hrs
Rattus norvegicus [12] = experiment: Antiallodynic activity in Sprague-Dawley rat model of neuropathic mechanical allodynia assessed as increase in paw withdrawal threshold at 0.1 mg/kg, IM measured at 2 hr post last dose by von Frey test; type: functional
[13] = target: T3, Neuronal acetylcholine receptor; alpha9/alpha10 (Homo sapiens); experiment: Antagonist activity at human alpha9alpha10 nAChR expressed in Xenopus laevis oocytes assessed as inhibition of Ach-induced response incubated for 5 mins by two electrode voltage-clamp assay; type: cell-based; conditions: Oocyte, filed as antagonist, dose 1-30 µM
[14] = target: Nicotinic acetylcholine receptor alpha6/alpha3/beta4 (Homo sapiens) (UniProt P30926+P32297+Q15825); experiment: Antagonist activity at human alpha6/alpha3beta4 nAChR expressed in Xenopus laevis oocytes assessed as inhibition of Ach-induced response at 1 to 30 uM incubated for 5 mins by two electrode voltage-clamp assay; type: cell-based; conditions: Oocyte, filed as antagonist, dose 1-30 µM
[15] = target: Neuronal acetylcholine receptor; alpha3/beta4 (Homo sapiens) (UniProt P30926+P32297); experiment: Antagonist activity at human alpha3beta4 nAChR expressed in Xenopus laevis oocytes assessed as inhibition of Ach-induced response at 1 to 30 uM incubated for 5 mins by two electrode voltage-clamp assay; type: cell-based; conditions: Oocyte, filed as antagonist, dose 1-30 µM
[16] = target: T1, Neuronal acetylcholine receptor; alpha3/beta2 (Homo sapiens); experiment: Antagonist activity at human alpha3beta2 nAChR expressed in Xenopus laevis oocytes assessed as inhibition of Ach-induced response incubated for 5 mins by two electrode voltage-clamp assay; type: cell-based; conditions: Oocyte, filed as antagonist, dose 1-30 µM

| Compound | inhibition ([1]; filed as antagonist) [%] | inhibition [2] [%] | inhibition [3] [%] | inhibition [4] [%] | inhibition [1] | Activity (Rattus norvegicus [5]) [g] | inhibition [6] | inhibition [7] | Activity (Rattus norvegicus [8]) [g] | Activity (Rattus norvegicus [9]) [g] | Activity (Rattus norvegicus [10]) [g] | IC50 (GABA-B receptor) [nM] | Activity (Rattus norvegicus [11]) | Activity (Rattus norvegicus [12]) [g] | inhibition [13] | inhibition ([7]; filed as antagonist) | inhibition [14] | inhibition [15] | inhibition [16] |
| --- | --- | --- | --- | --- | --- | --- | --- | --- | --- | --- | --- | --- | --- | --- | --- | --- | --- | --- | --- |
| CC[C@H](C)[C@@H]1NC(=O)[C@H](CCC(=O)O)NC(=O)[C@@H]2CCCN2C(=O)[C@H](Cc2cnc[nH]2)NC(=O)[C@H](CC(=O)O)NC(=O)[C@H](Cc2ccc(O)cc2)NC(=O)[C@H](CC(N)=O)NC(=O)[C@@H]2CCCC[C@@H](NC(=O)CN)C(=O)N[C@H](CSSC[C@@H](C(N)=O)NC1=O)C(=O)N[C@@H](CO)C(=O)N[C@@H](CC(=O)O)C(=O)N1CCC[C@H]1C(=O)N[C@@H](CCCNC(=N)N)C(=O)N2 | > 90 | 0.06 | 0.06 | 0.06 |  |  |  |  |  |  |  |  |  |  |  |  |  |  |  |
| CC[C@H](C)[C@@H]1NC(=O)[C@H](CCC(=O)O)NC(=O)[C@@H]2CCCN2C(=O)[C@H](Cc2cnc[nH]2)NC(=O)[C@H](CC(=O)O)NC(=O)[C@H](Cc2ccc(O)cc2)NC(=O)[C@H](CC(N)=O)NC(=O)[C@@H]2CC#CC[C@@H](NC(=O)CN)C(=O)N[C@H](CSSC[C@@H](C(N)=O)NC1=O)C(=O)N[C@@H](CO)C(=O)N[C@@H](CC(=O)O)C(=O)N1CCC[C@H]1C(=O)N[C@@H](CCCNC(=N)N)C(=O)N2 |  | 26 | 26 | 26 | inactive | 3.88 | inactive | inactive | 5.38 | 4.88 | 5.5 | 13 | Dose-Dependent Effect | 5.5 |  |  |  |  |  |
| CC[C@H](C)[C@@H]1NC(=O)[C@H](CCC(=O)O)NC(=O)[C@@H]2CCCN2C(=O)[C@H](Cc2cnc[nH]2)NC(=O)[C@H](CC(=O)O)NC(=O)[C@H](Cc2ccc(O)cc2)NC(=O)[C@H](CC(N)=O)NC(=O)[C@@H]2CSSC[C@H](NC(=O)[C@@H](NC(=O)CN)CSSC[C@@H](C(N)=O)NC1=O)C(=O)N[C@@H](CO)C(=O)N[C@@H](CC(=O)O)C(=O)N1CCC[C@H]1C(=O)N[C@@H](CCCNC(=N)N)C(=O)N2 |  | 25 | 25 | 25 |  |  |  |  |  |  |  | 21 |  |  | Dose-Dependent Effect | Dose-Dependent Effect | Active | Active | Dose-Dependent Effect |
